Laboratory results: patent US20150320783A1, “N-METHY[…] RELATED SUBSTANCES FOR USE IN TREATING / LESSENING THE OCCURRENCE OF HOT FLASHES RELATED TO MENOPAUSE” (DSM IP ASSETS B.V., priority 2013, published 2015)
“Also recorded” adds a separate entry of the source.

How the values were obtained:
Assay type in all cases: in vivo, rat
plasma estradiol = experiment: Circulating (plasma) estradiol levels in ovariectomized female rats; conditions: for plasma estradiol: first study, FIG. 5, dietary NMS supplementation, estradiol supplemented animals
Excerpt: (§1) The animals arrived at approximately 60 days of age, and were placed on specific diets throughout the study (to approximately 160 days of age). The diets were formulated and provided by Dyets Inc. (Bethlehem, Pa.) and are based on a modified AIN-93G diet. These diets were fed ad libitum. Two weeks after arrival, at approximately […] of age, the animals were ovariectomized, allowed to recover for three weeks, and then placed on defined diets. In the first study, these diets contained 0, 0.08, 0.48, 3.2, 18.5, 185, or 3700 μg/kg/day of NMS dihydrochloride (FIG. 2). In the second, follow-up study, the diets contained no NMS (control), NMS oxalate (18.5 or 55.5 μg/kg/d), or milled Zanthoxylum seed in quantities that supplied NMS-glucoside at equivalent doses (18.5 or 55.5 μg/kg/d; FIG. 8). The NMS and NMS-glucoside content was verified using liquid chromatography with mass spectrometric etection. Extraction methods were similar to those of Yanase et al., 2010.
(§2) All diets were fed for 2 weeks prior to the first behavioral assessment (open field). Positive control animals received a 5.0 mm subcutaneous silastic capsule implant packed with a crystalline 17β-estradiol and cholesterol mixture (25%, 0.058 inch inner diameter, 0.077 inch outer diameter; Dow Corning #508-006). Animals were then examined for locomotor activity (open field) and in two behavioral assays to assess mood (elevated plus maze and swim test) separated by two weeks in-between each assay. Two weeks after the final behavioral task (swim test), the animals were anesthetized and their physiological response to an experimentally-induced hot flash was tested. After the temperature monitoring was complete, tissue was harvested while the animals were still anesthetized.

[1] = tested on: ovariectomized female rats; experiment: Uterine weight (uterotrophic effect) in ovariectomized female rats; conditions: vs ovariectomized controls; for uterine weight: first study, FIG. 6D, after 80 days of supplementation; for uterine weight / uterine growth: follow-up study, FIG. 11A
Excerpt: as §1, §2

[2] = Body weight of ovariectomized female rats; conditions: for body weight: FIG. 6A, dietary NMS vs control diet, estradiol implanted, throughout the experiment
Excerpt: as §1, §2

[3] = tested on: ovariectomized female rats; experiment: CGRP-induced hot flash response (skin temperature) in ovariectomized rats
Excerpt: as §1, §2
Two weeks after arrival, each animal was anesthetized via isoflurane inhalation and the dorsal mid-lumbar area was shaved and swabbed with surgical scrub, iodine and alcohol. The animal was then placed on a warm heat pad covered by a sterile cloth/pad in ventral recumbency with tail towards surgeon. A 2-3 cm dorsal midline skin incision was made halfway between the caudal edge of the ribcage and the base of the tail. A single transverse incision of 5.5-10 mm long was made into the muscle wall on both the right and left sides approximately ⅓ of the distance between the spinal cord and the ventral midline. The ovary and the oviduct were exteriorized through the muscle wall. A hemostat was clamped around the uterine vasculature between the oviduct and uterus and the uterine vasculature was ligated with dissolvable suture. Each ovary and part of the oviduct was removed with single cuts through the oviducts near the ovary. The hemostat was removed, and the remaining tissue replaced into the peritoneal cavity. The ovary on the other side was removed in a similar manner. The muscle incision is not sutured. Sterile wound clips were used to close the skin incision. Animals were monitored daily for signs of infection or morbidity.
Animals were anesthetized with intraperitoneal co-injection of urethane (750 mg/kg) and α-chloralose (60 mg/kg). […] Thermistor probes (ADI Instruments, Colorado Springs, Colo.) were taped to the plantar surfaces of one hind foot. Forty minutes later, after anesthesia-induced hypothermia had stabilized, the basal skin temperature was recorded. Temperature monitoring then occurred at 5-second intervals throughout the remainder of the experiment. Calcitonin gene related peptide (CGRP; 10 μg/kg, i.v.) dissolved in saline was then injected via the tail vein. A maximum of eight animals were tested at the same time due to limitations on instrumental throughput. Cage mates were always tested together in order to avoid the stresses of single-housing and the potential stress hormone effects on body temperature. Therefore only four groups could be tested within any one given day.

[4] = tested on: ovariectomized female rats; experiment: Behavioral measures of mood (open field, elevated plus maze, swim test)
Excerpt: as §2, with “After the temperature monitoring was complete, tissue was harvested while the animals were still anesthetized.” left out
Animals were tested in the open field to measure overall locomotor activity and basal anxiety state. […] Rats were placed in the middle of the chamber and behavior in the open field was recorded for thirty minutes with a digital camera and measured by software (AnyMaze, Stoelting Co., Inc.). The following parameters were analyzed: a) total distance traveled; b) time in center; c) center entries; and d) number of fecal boli excreted.
Animals were tested on the elevated plus maze to measure anxiety-related behavior. […] Each rat was placed in the central platform facing one of the open arms, and its behavior was recorded during a 5-min testing period with video capture software (AnyMaze). […]

[5] = tested on: ovariectomized female rats; experiment: Forced swim test (depressive-like behaviors); conditions: first study, FIG. 7A; estradiol implanted
Description: Each rat was examined in the swim test for depressive-like behaviors. The test was performed over two consecutive days since it is a measure of an adaptive response to a perceived inescapable situation. The first test establishes to the animal that it is an inescapable situation, and the second test measures the animal's degree of passive coping derived from an unwillingness to maintain effort in an inescapable situation. Typical antidepressants limit the amount of passive coping (immobility) and promote the amount of active coping (swimming/climbing). On day one (0800 h to 1300 h), animals were acclimated to the test by placing them in a plexiglass cylindrical container (45 cm×20 cm) filled with 30 cm of fresh water (25° C.) for fifteen minutes, after which they were toweled dried and returned to their home cage. On day two (24 hrs later) the test was performed for a total swim time of five minutes, after which the rats were toweled dried and returned to their home cage. Both trials were recorded by a digital video camera was secured to the ceiling above the cylinders and connected to a laptop. Total time spent swimming and immobile was measured real-time by behavioral software (Anymaze, Stoelting Co.), and scored post hoc by a blinded experimenter from captured video. […]

[6] = first study, representative data FIG. 3, 0.48 ug/kg/d NMS through diet vs untreated controls
[7] = first study, dietary NMS, dose not stated, estradiol subcutaneous, no dietary NMS (positive control)
[8] = first study, dietary NMS, dose not stated, estradiol subcutaneous, no dietary NMS (positive control), CGRP 10 μg/kg i.v.
[9] = follow-up study, FIG. 9, milled Zanthoxylum seed supplying NMS-glucoside 18.5 or 55.5 μg/kg/d, NMS oxalate 18.5 or 55.5 μg/kg/d, or estradiol, vs untreated controls

Row | SMILES | plasma estradiol (plasma estradiol) | non-uterine estradiol secretion (plasma estradiol; results summary) | uterine weight [1] | uterine weight / uterine growth [1] | body weight ([2]; first study) | weight change as a percentage of original weight ([2]; first study, FIG. 6B and C, throughout or at the end of the study) | basal skin temperature ([3]; first study, FIG. 3 and 4, 18.5 ug/kg/d NMS through diet vs untreated controls) | CGRP response above calculated baseline (skin temperature) [3, 6] | basal skin temperature [3, 6] | CGRP response above calculated baseline (skin temperature) ([3]; first study, representative data FIG. 3, 18.5 ug/kg/d NMS through diet vs untreated controls) | basal (baseline) skin temperature [3, 7] | CGRP-induced hot flash response [3, 8] | CGRP-induced hot flash response [3, 9] | behavioral measures of mood ([4]; first study, FIG. 7, dietary NMS) | behavioral measures of mood / mood-related behaviors ([4]; follow-up study, FIG. 10) | body weight throughout the experiment ([2]; follow-up study, FIG. 11B, estradiol implanted vs all other groups) | time immobile during the second session of the forced swim test [5]
1 | CNCCc1c[nH]c2ccc(O)cc12 [NMS, N-methylserotonin] | increased plasma estradiol in a dose-dependent manner | tripled | did not alter uterine weight | did not alter uterine weight | did not alter body weight | not different between dietary treatments | lower basal temperatures; also recorded: decreased basal skin temperature | lower CGRP responses | lower basal temperatures | lower CGRP responses | reduced baseline skin temperature | blunted the CGRP-induced hot flash response | blunted the CGRP-induced hot flash response | did not alter behavioral measures of mood | did not alter behavioral measures of mood |  | 
2 | CNCCc1c[nH]c2ccc(O[C@@H]3O[C@H](CO)[C@@H](O)[C@H](O)[C@H]3O)cc12 [NMS-glucoside, N-methylserotonin 5-O-β-glucoside] |  |  |  |  |  |  |  |  |  |  |  |  | blunted the CGRP-induced hot flash response |  |  |  | 
3 | C[C@]12CC[C@@H]3c4ccc(O)cc4CC[C@H]3[C@@H]1CC[C@@H]2O [estradiol, 17β-estradiol, reference compound] | highest levels of plasma estradiol |  | significantly higher uterine weights | significantly higher uterine weights | significantly lower body weight |  |  |  |  |  | lowest basal temperatures | lowest responses to CGRP | blunted the CGRP-induced hot flash response |  |  | significantly lower body weight | spent less time immobile
